Measurements published in patent US6710049B2, “Azole compounds as anti-fungal agents” (Ranbaxy Laboratories Limited, priority 2000, dated 2004).
Values after ≈ are worked out from the molar mass of the structure shown.

Tests used:
[1] = test system: A flavus P2 - 1045; assay: MIC determination (NCCLS broth method); type: cell-based
Source text: (§1) The in-vitro evaluation of the antifungal activity of the compounds can be performed by determining the minimum inhibitory concentration (MIC) as shown in Table 1 which is the concentration of the test compound in Rosewell Park Memorial Institute (RPMI) 1640 liquid medium buffered with 3-(Morpholino)propanesulphonic acid (MOPS) to pH 7, at which there is significant inhibition of the particular fungi. In practice the National Committee for Clinical Laboratory Standard (NCCLS) M27A document for Candida and Cryptococcus and M38P for Aspergillus was used to determine the MIC against yeast and filamentous fungi with suitable modifications for dermatophytes to other filamentous fungi. Three quality control strains were included each time the MIC were determined and readings recorded only when the Quality Control results fell into the acceptable range. After MIC results had been recorded, 100 μl from each of the well showing no growth was spread over Sabouraud Dextrose Agar (SDA) to determine the minimum fungicidal concentration (MFC) as shown in Table 2.

[2] = test system: A flavus E3 - 1044; assay: MIC determination (NCCLS broth method); type: cell-based
Source text: as §1

[3] = test system: C krusei 6258; assay: MIC determination (NCCLS broth method); type: cell-based
Source text: as §1

[4] = test system: Fusarium 1050; assay: MIC determination (NCCLS broth method); type: cell-based
Source text: as §1

[5] = test system: Mucor (Ceylon); assay: MIC determination (NCCLS broth method); type: cell-based
Source text: as §1

[6] = test system: Penicillium 191; assay: MIC determination (NCCLS broth method); type: cell-based
Source text: as §1

[7] = test system: C parapsilosis 22019; assay: MIC determination (NCCLS broth method); type: cell-based
Source text: as §1

[8] = test system: Penicillium 2548; assay: MIC determination (NCCLS broth method); type: cell-based
Source text: as §1

[9] = test system: Fusarium 1827C; assay: MIC determination (NCCLS broth method); type: cell-based
Source text: as §1

[10] = test system: C glabrata 90030; assay: MIC determination (NCCLS broth method); type: cell-based
Source text: as §1

[11] = test system: H capsulatum; assay: MIC determination (NCCLS broth method); type: cell-based
Source text: as §1

[12] = test system: A flavus E2 - 1043; assay: MIC determination (NCCLS broth method); type: cell-based
Source text: as §1

[13] = test system: Alternaria 1051; assay: MIC determination (NCCLS broth method); type: cell-based
Source text: as §1

[14] = test system: A niger P1 - 1046; assay: MIC determination (NCCLS broth method); type: cell-based
Source text: as §1

[15] = test system: A flavus E4 - 1042; assay: MIC determination (NCCLS broth method); type: cell-based
Source text: as §1

[16] = test system: A niger E5 - 1047; assay: MIC determination (NCCLS broth method); type: cell-based
Source text: as §1

[17] = test system: Penicillium I - 1049; assay: MIC determination (NCCLS broth method); type: cell-based
Source text: as §1

[18] = test system: Rhizopus 1052; assay: MIC determination (NCCLS broth method); type: cell-based
Source text: as §1

[19] = test system: Penicillium 3162; assay: MIC determination (NCCLS broth method); type: cell-based
Source text: as §1

[20] = test system: P variotii 22319; assay: MFC determination (subculture on Sabouraud Dextrose Agar); type: cell-based, Paecillomyces variotii
Source text: as §1

[21] = test system: Aspergillus fumigatous; assay: In vivo anti-fungal activity, ED50 in systemically infected mice; set-up: species or system Swiss albino mice; settings: mice infected i.v. with Aspergillus fumigatous, dosing for five days
Protocol: The in-vivo evaluation of the compound can be carried out at a series of dose levels by oral or I. V. injection to mice which are inoculated I.V. with the minimum lethal dose of Candida albicans, Cryptococcus neoformans or Aspergillus fumigatus by the tail vein. Activity is based on the survival of a treated group of mice after the death of an untreated group of mice. For Aspergillus and Cryptococcus infections, target organs were cultured after treatment to document the number of mice cured of the infection for further assessment of activity.
Method: Briefly, Swiss albino mice weighing 20±2 G were injected intravenously (tail vein) with sufficient fungal cells to kill 100% of the untreated animals for Aspergillus fumigatous strain used. In all cases each group comprised of six mice. Five does levels, utilizing doubling dilution range, were employed per determination ranging from 25 to 1.56 mg/kg BW. Dosing was carried out for five days starting after 30 minutes of infection. […] Treated animals were monitored twice daily for 14 days post infection at which time the experiment was terminated and ED50 was calculated.

[22] = test system: T. rubrum; assay: Activity against dermatophytes; type: cell-based; set-up: unit not given here
Source text: as §1
(§2) A comparative in vitro and in vivo biologically activity data of the compound of our invention, 2-{[1R,2R]-2-(2,4-Difluorophenyl)-2-hydroxy-1-methyl-3-(1H-1,2,4-triazole-1-yl)propyl}-4-[(2′,2′,3′,3′-tetrafluoropropoxyphenyl)-3-(2H,4H)-1,2,4-thiotriazolone (Compound No. 3) with 2-[(1R,2R)-2-(2,4-difluorophenyl)-2-hydroxy-1-methyl-3-(1H-1,2,4-triazol-1-yl)propyl]-4-(2′,2′,3′,3′-tetraflouropropoxyphenyl)-3(2H,4H)-1,2,4-triazolone (TAK 187) and standard antifungal pharmaceuticals is given below: […]

[23] = test system: T. mentagrophyte; assay: Activity against dermatophytes; type: cell-based; set-up: unit not given here
Source text: as §1, §2

[24] = test system: Penicillium spp. isolates; assay: Comparative in vitro MIC, isolate panel; type: cell-based
Source text: as §1, §2

[25] = test system: Rhizoupus spp. isolates; assay: Comparative in vitro MIC, isolate panel; type: cell-based
Source text: as §1, §2

[26] = test system: All Filamentous isolates; assay: Comparative in vitro MIC, isolate panel; type: cell-based
Source text: as §1, §2

[27] = test system: Fusarium spp. isolates; assay: Comparative in vitro MIC, isolate panel; type: cell-based
Source text: as §1, §2

[28] = test system: All fungal pathogens; assay: Comparative in vitro MIC, isolate panel; type: cell-based
Source text: as §1, §2

[29] = test system: All Candida isolates; assay: Comparative in vitro MIC, isolate panel; type: cell-based
Source text: as §1, §2

[30] = test system: Aspergillus fumigatus isolates; assay: Comparative in vitro MIC, isolate panel; type: cell-based
Source text: as §1, §2

[31] = read-out: Minimum Inhibitory Concentration (MIC)

## C[C@@H](n1ncn(-c2ccc(N3CCN(c4ccc(Cl)cc4)CC3)cc2)c1=S)[C@](O)(Cn1cncn1)c1ccc(F)cc1F [Compound No. 1, 2-{[1R,2R]-2-(2,4-Difluorophenyl)-2-hydroxy-1-methyl-3-(1H-1,2,4-triazole-1-yl)propyl}-4-{4-[4-(4-chlorophenyl)-1-piperizinyl]phenyl}-3-(2H,4H)-1,2,4-thiotriazolone]
[1]
  Minimum Inhibitory Concentration (MIC): 0.016 µg/mL
[2]
  Minimum Inhibitory Concentration (MIC): 0.016 µg/mL
[3]
  Minimum Inhibitory Concentration (MIC): 0.06 µg/mL
[4]
  Minimum Inhibitory Concentration (MIC): 1 µg/mL
[5]
  Minimum Inhibitory Concentration (MIC): 0.004 µg/mL
[6]
  Minimum Inhibitory Concentration (MIC): 0.06 µg/mL
[7]
  Minimum Inhibitory Concentration (MIC): 0.004 µg/mL
[8]
  Minimum Inhibitory Concentration (MIC): 0.125 µg/mL
[9]
  Minimum Inhibitory Concentration (MIC): 2 µg/mL
[10]
  Minimum Inhibitory Concentration (MIC): 0.06 µg/mL
[11]
  Minimum Inhibitory Concentration (MIC): 0.06 µg/mL
[12]
  Minimum Inhibitory Concentration (MIC): 0.008 µg/mL
[13]
  Minimum Inhibitory Concentration (MIC): 0.03 µg/mL
[14]
  Minimum Inhibitory Concentration (MIC): 0.03 µg/mL
[15]
  Minimum Inhibitory Concentration (MIC): 0.008 µg/mL
[16]
  Minimum Inhibitory Concentration (MIC): 0.03 µg/mL
[17]
  Minimum Inhibitory Concentration (MIC): 0.03 µg/mL
[18]
  Minimum Inhibitory Concentration (MIC): 0.0005 µg/mL
[19]
  Minimum Inhibitory Concentration (MIC): 0.03 µg/mL
[20]
  Minimum Fungicidal Concentration (MFC): 0.06 µg/mL

## CCC(C)n1ncn(-c2ccc(N3CCN(c4ccc(OCC5COC(Cn6cncn6)(c6ccc(Cl)cc6Cl)O5)cc4)CC3)cc2)c1=O (stereo not shown) [Itraconazole]
[21]; Day 7 post infection
  ED50: 8.84 mg/kg body weight
[21]; Day 14 post infection
  ED50: 21.02 mg/kg body weight
[1]; [31]
  MIC: 0.06 µg/mL (≈ 0.085 µM)
[2]; [31]
  MIC: 0.03 µg/mL (≈ 0.0425 µM)
[3]; [31]
  MIC: 0.25 µg/mL (≈ 0.354 µM)
[4]; [31]
  MIC: 64 µg/mL (≈ 90.7 µM)
[5]; [31]
  MIC: 0.125 µg/mL (≈ 0.177 µM)
[6]; [31]
  MIC: 0.06 µg/mL (≈ 0.085 µM)
[7]; [31]
  MIC: 0.03 µg/mL (≈ 0.0425 µM)
[8]; [31]
  MIC: 0.25 µg/mL (≈ 0.354 µM)
[9]; [31]
  MIC: 128 µg/mL (≈ 181 µM)
[10]; [31]
  MIC: 0.5 µg/mL (≈ 0.709 µM)
[12]; [31]
  MIC: 0.03 µg/mL (≈ 0.0425 µM)
[13]; [31]
  MIC: 0.125 µg/mL (≈ 0.177 µM)
[14]; [31]
  MIC: 0.125 µg/mL (≈ 0.177 µM)
[15]; [31]
  MIC: 0.06 µg/mL (≈ 0.085 µM)
[16]; [31]
  MIC: 0.03 µg/mL (≈ 0.0425 µM)
[17]; I1049, read-out: Minimum Inhibitory Concentration (MIC)
  MIC: 16 µg/mL (≈ 22.7 µM)
[18]; [31]
  MIC: 16 µg/mL (≈ 22.7 µM)
[19]; [31]
  MIC: 0.25 µg/mL (≈ 0.354 µM)
[20]; read-out: Minimum Fungicidal Concentration (MFC)
  MFC: 0.06 µg/mL (≈ 0.085 µM)
[22]
  Activity against dermatophytes: 0.03
[23]
  Activity against dermatophytes: 0.125
[24]
  MIC: 0.922 µg/mL (≈ 1.31 µM)
[24]; read-out: MIC50
  MIC50: 0.5 µg/mL (≈ 0.709 µM)
[24]; read-out: MIC90
  MIC90: 256 µg/mL (≈ 363 µM)
[25]
  MIC: 32 µg/mL (≈ 45.3 µM)
[25]; read-out: MIC50
  MIC50: 16 µg/mL (≈ 22.7 µM)
[25]; read-out: MIC90
  MIC90: 64 µg/mL (≈ 90.7 µM)
[26]
  MIC: 0.6 µg/mL (≈ 0.85 µM)
[26]; read-out: MIC50
  MIC50: 0.25 µg/mL (≈ 0.354 µM)
[26]; read-out: MIC90
  MIC90: 256 µg/mL (≈ 363 µM)
[27]
  MIC: 90.5 µg/mL (≈ 128 µM)
[27]; read-out: MIC50
  MIC50: 64 µg/mL (≈ 90.7 µM)
[27]; read-out: MIC90
  MIC90: 256 µg/mL (≈ 363 µM)
[28]
  MIC: 0.437 µg/mL (≈ 0.619 µM)
[28]; read-out: MIC50
  MIC50: 0.19 µg/mL (≈ 0.269 µM)
[28]; read-out: MIC90
  MIC90: 256 µg/mL (≈ 363 µM)
[29]
  MIC: 0.1 µg/mL (≈ 0.142 µM)
[29]; read-out: MIC50
  MIC50: 0.25 µg/mL (≈ 0.354 µM)
[29]; read-out: MIC90
  MIC90: 0.5 µg/mL (≈ 0.709 µM)
[30]
  MIC: 0.181 µg/mL (≈ 0.257 µM)
[30]; read-out: MIC50
  MIC50: 0.25 µg/mL (≈ 0.354 µM)
[30]; read-out: MIC90
  MIC90: 0.5 µg/mL (≈ 0.709 µM)
